The test system of the assay is anti-β-glucan antibody (ABA IgG, ABA IgM). The assay can be described thus: Example 1: IgG and IgM ABA levels in a cancer subject on IVIG, IMPRIME PGG and pembrolizumab. The assay is classed as in vivo, human. The following applies: same subject and regimen. The protocol: Soluble β-glucan immunotherapy was administered to a subject diagnosed with glucaganoma. The subject's ABA level prior to immunotherapy treatment placed them in the Low-ABA subgroup, and therefore, their ABA level was boosted by administration of IVIG. GAMMAGARD at 100 mg/ml was intravenously administered prior to each treatment, which provided 161 μg ABA/ml. […] Each cycle was 3 weeks.

Turning to pembrolizumab [reference compound], the “ABA IgG” value reads like this: (cycle 1, day 2 EOI pembro) 18.2 µg/mL; (cycle 2, day 1 EOI-pembro) 49.4 µg/mL; (cycle 3, day 1 EOI-pembro) 60.7 µg/mL. Also, the “ABA IgM” value (cycle 1, day 2 EOI pembro) was 5.3 µg/mL and the “ABA IgM” value (cycle 2, day 1 EOI-pembro) was 9.6 µg/mL.

The values above are taken from US11815435B2, “Beta glucan immunopharmacodynamics” (HiberCell, Inc., priority 2017, dated 2023).
